Target: T1, Na^+ /H^+ exchanger (Rattus norvegicus, UniProt P26431)
T1 construct: endogenous in cells; host or cells: thymocytes freshly isolated from the thymus of a male SD (Sprague-Dawley) rat
Assay: Inhibitory activity on Na^+ /H^+ exchange in cells (thymocyte swelling in sodium propionate medium)
Assay type: cell-based
Conditions: apparent Ki, Lineweaver-Burk plot; rate of swelling of thymocytes (male SD strain); sodium-propionate medium pH 6.8; 0.1% DMSO; 3-5 concentrations
Protocol: [2] Inhibitory activity on Na^+ /H^+ exchange in cells
Procedure was carried out according to a similar manner to the method described in Enzymology 173, 777 (1989).
One male SD strain weighing 250-300 g was sacrificed with the blow on the head. Then, the thymus was removed into ice-cold NaCl medium (140 mM sodium chloride, 1 mM potassium chloride, 1 mM calcium chloride, 1 mM magnesium chloride, 10 mM glucose and 20 mM N-2-hydroxyethylpiperazine-N'-2-ethanesulfonic acid (HEPES) - - - pH 7.3), cut in small fragments, and transferred to glass homogenizer. The cells were dissociated by gentle strokes, and the resulting suspension was filtrated through six layers of surgical gauze and the filtrate was centrifuged at 4° C. at 1000 g for 5 minutes. The pellet was resuspended in RPMI 1640 medium (pH 7.3) at room temperature to adjust final cell concentration (1×10^7 cells/ml).
This method detects the swelling that accompanies activation of Na^+ /H^+ exchanger in cells incubated with sodium propionate. Propionic acid rapidly penetrates through the membrane. […]
Cell sizing and counting were performed electrically with the Coulter Counter-Channelyzer (AT-II). […] Rate of Swelling (volume/min.) was measured by using 3-5 concentrations of test compound. Then, apparent Ki value of test compound was calculated by using Line weaver-Burk plot.

T1 sequence (P26431 whole entry): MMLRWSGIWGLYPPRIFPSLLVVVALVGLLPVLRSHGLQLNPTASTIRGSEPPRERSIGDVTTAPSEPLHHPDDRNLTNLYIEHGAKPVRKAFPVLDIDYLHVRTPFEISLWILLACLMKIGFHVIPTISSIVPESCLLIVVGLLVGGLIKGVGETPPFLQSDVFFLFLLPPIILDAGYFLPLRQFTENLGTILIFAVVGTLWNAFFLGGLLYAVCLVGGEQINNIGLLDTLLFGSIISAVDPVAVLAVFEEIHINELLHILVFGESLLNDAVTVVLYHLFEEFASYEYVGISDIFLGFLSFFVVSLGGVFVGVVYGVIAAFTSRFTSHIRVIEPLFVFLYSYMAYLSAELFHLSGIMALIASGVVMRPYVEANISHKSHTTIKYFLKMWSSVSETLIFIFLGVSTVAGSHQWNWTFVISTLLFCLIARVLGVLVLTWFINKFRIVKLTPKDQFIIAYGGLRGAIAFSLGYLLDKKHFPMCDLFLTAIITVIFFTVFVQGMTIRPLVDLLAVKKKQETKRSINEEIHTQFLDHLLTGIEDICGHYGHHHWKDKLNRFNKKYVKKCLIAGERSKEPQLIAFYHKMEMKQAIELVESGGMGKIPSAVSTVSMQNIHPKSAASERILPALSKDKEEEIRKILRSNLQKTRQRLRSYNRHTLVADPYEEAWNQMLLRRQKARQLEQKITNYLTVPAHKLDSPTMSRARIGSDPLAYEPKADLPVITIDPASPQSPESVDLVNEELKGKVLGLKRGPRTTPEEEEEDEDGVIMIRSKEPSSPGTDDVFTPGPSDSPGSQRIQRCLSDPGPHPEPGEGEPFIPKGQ

A Ki of less than 100 nM was found for `CS(=O)(=O)c1cc(C(=O)N=C(N)N)cc(-n2cccc2)c1` [Test compound (a), 2-[3-Methylsulfonyl-5-(pyrrol-1-yl)benzoyl]guanidine] in this work.
